# Marks after values point to notes of the source that are not given here.
# Tests used:
# [1] = tested on: Runx2; assay: Runx2 luciferase reporter assay (p6xOSE2-luc); assay type: cell-based
# Method: FIG. 1. depicts activity of compound I (LA-1) and compound 8 (LA-3) on osteoblast differentiation. FIG. 1: (A) The effects of test compounds (up to 500 nM) on osteoblast differentiation were evaluated by ALP staining. (B) The effect of test compounds (up to 50 nM) on osteoblast differentiation were evaluated by ALP staining. MS-275 was used as a positive control. The effects of test compounds on cell viability (C) and RUNX2 activity (D) were evaluated by CCK-8 assay and 6×OSE2-luciferase activity assay, respectively.
# To measure Runx2 activity, p6×osteoblast-specific cis-acting element (OSE) 2-luc reporter vector was transiently transfected into C2C12 cells that were seeded in a 96-well plate at 5×10^3 cells/well as described previously (Kim et al., J. Cell Biochem. 2004, 9, 1239-1247). After 24 h, medium was replaced with DMEM containing 5% FBS with or without tanshinone IIA and/or BMP-2. After 24 h, the cells were lysed, and luciferase activity was measured using luciferase reporter assay system (Promega) and the Wallac EnVision microplate reader.
# [2] = tested on: calvarial bones of mice; assay: In vivo murine calvarial bone formation assay
# Method: In vivo bone-forming activity of largazole was evaluated using lyophilized collagen sponges as described previously. […] Three weeks after drug implantation, the calvarias were harvested, fixed in 4% paraformaldehyde, decalcified in 12% EDTA, embedded in paraffin, and sectioned. Sections were deparaffinized through graded xylene washes, […] in a graded series of ethanol washes, and stained with hematoxylin and eosin (H&E).
# [3] = tested on: calvaria bone; assay: In vivo bone regeneration model (calvaria bone defects); parameters: species or system rabbits
# Method: All rabbits are anesthetized with an intramuscular dose of 0.1 ml/kg Zoletil (Virbac, France). The head is shaved, and the cutaneous surface is disinfected with povidone iod solution prior to the operation. The calvaria bone is exposed through a skin incision of ˜4 cm in length. Four similar circular bicortical defects (3-mm diameter) are made in the parietal bone using a trephine on a slow-speed electric handpiece, applying 0.9% physiologic saline irrigation. Defects are filled with 10 mg of bone graft substitute, MBCP (Biomatlante, France) soaked with 50 μl of PBS or LA-1. Closure of periosteum and subcutaneous tissues is done with lactomer (Syneture), while the skin is relocated with nylon:polyamide (Syneture). Postoperative antibiotics are administered, e.g., Gentamycin. Rabbits are sacrificed at 4 weeks after surgery.
# [4] = tested on: C2C12 cells; assay: mRNA induction of osteoblastogenesis markers and BMPs by quantitative real-time PCR; assay type: cell-based; conditions: for ALP mRNA level, fold change relative to the control / BMP-2 mRNA level, fold change relative to the control / BMP-4 mRNA level, fold change relative to the control / BMP-6 mRNA level, fold change relative to the control / BMP-7 mRNA level, fold change relative to the control / BMP-9 mRNA level, fold change relative to the control / OPN mRNA level, fold change relative to the control / RUNX2 mRNA level, fold change relative to the control: 6 days, C2C12 cells, mean ± SD
# Method: Primers were designed using an on-line primer design program (Table 1). (S. Rozen, H. J. Skaletsky, Methods Mol. Biol. 2000, 132, 365-386.) Total RNA was isolated using TRIzol reagent (Life Technologies, MD) according to manufacturer's protocol. The concentration and purity of total RNA were calculated by measuring absorbance at 260 and 280 nm. First strand cDNA was synthesized using 2 μg of total RNA and 1 μM of oligo-dT18 primer and Omniscript Reverse Transcriptase (Qiagen, CA). SYBR green-based quantitative PCR was performed using the Stratagene Mx3000P Real-Time PCR system and Brilliant SYBR Green Master Mix (Stratagene, CA) with 3 μl of first-strand cDNA diluted 1:50 and 20 pmole of primers, according to the manufacturer's protocols. The PCR reaction consisted of three segments. The first segment (95° C. for 10 min) activated the polymerase; the second segment included 3-step cycling (40 cycles) at 94° C. for 40 sec (denaturation), 60° C. for 40 sec (annealing), and 72° C. for 1 min (extension); the third segment was performed to generate PCR product temperature dissociation curves (‘melting curves’) at 95° C. for 1 min, 55° C. for 30 sec, 95° C. for 30 sec. All reactions were run in triplicate, and data were analyzed by the 2^−ΔΔCT method (K. J. Livak, T. D. Schmittgen, Methods 2001, 25, 402-408.). GAPDH was used as the control gene. Significance was determined by Student's t-test with GAPDH-normalized 2^−ΔΔCT values. Differences were considered significant when P<0.05.
# [5] = tested on: RAW264.7 cells; assay: Osteoclastogenesis (RANKL-induced TRAP activity, multinucleated osteoclasts); assay type: cell-based
# Method: FIG. 2 depicts activity of compound I (LA-1) and compound 8 (LA-3) on osteoclastogenesis. FIG. 2: (A) Effects of test compounds on the RANKL-induced TRAP activity. (B) Effects of test compounds on the RANKL-induced formation of TRAP-positive multinucleated osteoclasts. Effects of test compounds on osteoclast differentiation was evaluated in RAW264.7 cells. RAW264.7 cells were plated in 96-well plates at the density 1×10^3 and then serially diluted LA compounds were treated and incubated until multinucleated osteoclasts were observed under a microscope.
# RAW264.7 cells were purchased from the ATCC and maintained in DMEM supplemented with 10% FBS, 100 U/ml of penicillin, and 100 μg/ml streptomycin with a change of medium every 3 days in humidified atmosphere of 5% CO2 in air at 37° C. For the osteoclast differentiation, RAW264.7 cells were suspended in α-minimal essential medium (α-MEM) supplemented with 10% FBS and 100 ng/ml RANKL (R&D Systems Inc., MN) and plated in a 96-well plate at 1×10^3 cells/well. The next day, cells were treated with largazole and then after an additional 3 days, multinucleated osteoclasts were observed.
# Multinucleated osteoclasts were fixed with 10% formalin for 10 min and ethanol/acetone (1:1) for 1 min, and then stained by Leukocyte Acid Phosphatase Kit 387-A (Sigma, Mo.). […] Absorbance was measured at 410 nm, and TRAP activity was presented as % of control. […]
smiles,measurement,setting,value
"CCCCCCCC(=O)SCC/C=C/[C@@H]1CC(=O)NCc2nc(cs2)C2=N[C@@](C)(CS2)C(=O)N[C@@H](C(C)C)C(=O)O1 [Largazole, largazole]",activity of RUNX2 (6×OSE2-luciferase activity assay),[1]; FIG. 1D,strongly induced the activity of RUNX2
same,increase of Runx2 activity relative to the DMSO control,"[1]; largazole at 50 nM, p6×OSE2-luciferase reporter",29 fold
same,woven bone formation at lower (50 μM) versus higher (100 μM) concentration,"[2]; 50 μM compared with 100 μM, collagen sponge implant",more significant than that at the higher concentration
same,woven bone formation over the periosteum of the calvarial bones,"[2]; collagen sponges soaked with largazole implanted, three weeks",induced woven bone formation
same,anabolic bone forming activity in vivo,[3],exhibited anabolic bone forming activity
same,"ALP mRNA level, fold change relative to the control",[4]; largazole 1 nM,1.85 ± 0.06^a fold
same,"BMP-2 mRNA level, fold change relative to the control",[4]; largazole 1 nM,2.15 ± 0.42^b fold
same,"BMP-4 mRNA level, fold change relative to the control",[4]; largazole 1 nM,0.91 ± 0.22 fold
same,"BMP-6 mRNA level, fold change relative to the control",[4]; largazole 1 nM,1.69 ± 0.12^b fold
same,"BMP-7 mRNA level, fold change relative to the control",[4]; largazole 1 nM,5.05 ± 0.31^c fold
same,"BMP-9 mRNA level, fold change relative to the control",[4]; largazole 1 nM,5.18 ± 0.74^c fold
same,"OPN mRNA level, fold change relative to the control",[4]; largazole 1 nM,1.33 ± 0.19 fold
same,"RUNX2 mRNA level, fold change relative to the control",[4]; largazole 1 nM,2.47 ± 0.39^b fold
same,"ALP mRNA level, fold change relative to the control",[4]; largazole 50 nM,324.04 ± 1.59^c fold
same,"BMP-2 mRNA level, fold change relative to the control",[4]; largazole 50 nM,6.29 ± 0.98^c fold
same,"BMP-4 mRNA level, fold change relative to the control",[4]; largazole 50 nM,2.38 ± 0.91^a fold
same,"BMP-6 mRNA level, fold change relative to the control",[4]; largazole 50 nM,7.15 ± 1.33^b fold
same,"BMP-7 mRNA level, fold change relative to the control",[4]; largazole 50 nM,17.12 ± 2.59^c fold
same,"BMP-9 mRNA level, fold change relative to the control",[4]; largazole 50 nM,12.14 ± 3.17^b fold
same,"OPN mRNA level, fold change relative to the control",[4]; largazole 50 nM,2.28 ± 0.12^b fold
same,"RUNX2 mRNA level, fold change relative to the control",[4]; largazole 50 nM,3.66 ± 1.19^a fold
same,"ALP mRNA level, fold change relative to the control",[4]; largazole 100 nM,263.33 ± 11.61^b fold
same,"BMP-2 mRNA level, fold change relative to the control",[4]; largazole 100 nM,6.34 ± 1.16^b fold
same,"BMP-4 mRNA level, fold change relative to the control",[4]; largazole 100 nM,3.48 ± 1.63 fold
same,"BMP-6 mRNA level, fold change relative to the control",[4]; largazole 100 nM,8.37 ± 0.88^c fold
same,"BMP-7 mRNA level, fold change relative to the control",[4]; largazole 100 nM,10.72 ± 1.90^c fold
same,"BMP-9 mRNA level, fold change relative to the control",[4]; largazole 100 nM,10.18 ± 2.22^b fold
same,"OPN mRNA level, fold change relative to the control",[4]; largazole 100 nM,0.83 ± 0.04^a fold
same,"RUNX2 mRNA level, fold change relative to the control",[4]; largazole 100 nM,2.06 ± 0.00^c fold
same,increase of Runx2 mRNA level relative to the DMSO control,"[4]; largazole at 50 nM, real-time PCR",3 fold
same,"mRNA expression levels of BMPs (BMP-2, 4, 6, 7, and 9)",[4]; real-time PCR,significantly induced
same,inhibition of osteoclastogenesis,[5],potential to inhibit the osteoclastogenesis

# Source: US20130281497A1, “MACROCYCLIC COMPOUNDS AND METHODS OF TREATMENT” (University of Florida Research Foundation, Inc., priority 2010, published 2013)
